Common to all, as to assay type: in vivo, mice
One experiment relates to PHTX02B xenograft model. Kind of experiment: Combination of gemcitabine and MLN4924 in PHTX02B xenograft model. The method, then: (§1) The PHTX02B breast xenograft model was established from a patient-derived tumor collected during surgery from a person with invasive ductal carcinoma classified as triple negative breast cancer (ER-/PR-/Her2-) by IHC. […] Gemcitabine (Gemzar, Henry Schein, Inc, Pittsburgh Pa., and Myoderm Medical, Norristown, Pa.) is formulated in 0.9% saline and administered by intraperitoneal injection (IP) q3Dx4 (every 3 days for a total of 4 doses) at 2.5 mg/kg or 10 mg/kg, or by IV injection twice weekly (BIW) at 20 mg/kg IVU. […] Tumors are measured twice weekly using a vernier caliper. […] Tumor size and body weight are measured approximately twice a week for the duration of the study. […] Tumor growth continued to be monitored after the dosing period in some studies. […] Average tumor volume is reported as a function of time for selected groups of selected studies in Figures A, B, and C. Measurements from day 0 to 18, 21 or 22 are analyzed as specified in Tables 4-9. […] For each animal, the log tumor volume at day 0 is subtracted from the log tumor volume on the subsequent days. This difference vs. time is used to calculate an area under the curve (AUC) for each animal using the trapezoid rule. In instances when an animal in a treatment group is removed early from the study, the last observed tumor value is carried forward through all subsequent time points. […] The standard error of the synergy score is computed based on the variation in the AUC values among the animals. […] Otherwise, the combination is classified as antagonistic.

The next experiment concerns NCI-H69 xenograft model. The experiment in a line: Combination of cisplatin and MLN4924 in NCI-H69 xenograft model. The method, then:
NCI-H69 or NCI-H82 small cell lung tumor fragments (30- to 40-mg) are implanted into the subcutaneous space in the area of the right flank of NCr nu/nu mice (7-10 weeks, Charles River Laboratories, Inc, Frederick Md. or Wilmington, Mass.) using a 12-gauge trocar.
(§2) Tumors are measured twice weekly using a vernier caliper. Tumor volumes are calculated using standard procedures (0.5×(length×width^2)). […] Tumor size and body weight are measured approximately twice a week for the duration of the study. Mice are euthanized when their tumor volume reached 10% of their body weight, or when the average tumor volume of a treatment or control group reached approximately 2000 mm^3. Tumor growth continued to be monitored after the dosing period in some studies. Average tumor volume is reported as a function of time for selected groups of selected studies in Figures A, B, and C.
(§3) Measurements from day 0 to 18, 21 or 22 are analyzed as specified in Tables 4-9. All tumor volumes have a value of 1 added to them before log10 transformation. For each animal, the log tumor volume at day 0 is subtracted from the log tumor volume on the subsequent days. This difference vs. time is used to calculate an area under the curve (AUC) for each animal using the trapezoid rule. […] The synergy score for the combination of agents A and B is defined as 100*(mean(AUCAB)−mean(AUCA)−mean(AUCB)+mean(AUCctl))/mean(AUCctl): where AUCAB, AUCA, AUCB, and AUCctl are the AUC values for animals in the combination group, the A group, the B group, and the control group, respectively. The standard error of the synergy score is computed based on the variation in the AUC values among the animals. […] If the P-value is above 0.05, then the combination is considered to be additive. If the P-value is below 0.05, and the synergy score is less than zero, then the combination is considered to be synergistic. […] Otherwise, the combination is classified as antagonistic.

For a further experiment, the system named is LU1143 xenograft model. The experiment in a line: Combination of docetaxel or carboplatin and MLN4924 in LU1143 xenograft model. As to conditions: 45 mg/kg MLN4924 BID SC. The method, then: (§4) Docetaxel (Henry Schein, Inc., Pittsburgh Pa., Qilu Pharmaceutical Co., Ltd., Jinan, Shandong, China, and Sanofi-Aventis) is formulated in 0.9% saline and administered by intravenous injection (IV) once weekly (QW) at 5 mg/kg or 10 mg/kg.
(§5) Carboplatin (CARBOplatin Injection, Hospira, Inc., Qilu Pharmaceutical Co., Ltd. Jinan, Shandong, China, and Teva Gry-Pharma GmbH, Ulm, Germany) is formulated in 0.9% saline and administered by IP injection once weekly (QW) at 50 mg/kg. The once weekly schedule is also described as every 7 days (Q7D).
as §2
Measurements from day 0 to 18, 21 or 22 are analyzed as specified in Tables 4-9. All tumor volumes have a value of 1 added to them before log10 transformation. For each animal, the log tumor volume at day 0 is subtracted from the log tumor volume on the subsequent days. This difference vs. time is used to calculate an area under the curve (AUC) for each animal using the trapezoid rule. […] The synergy score for the combination of agents A and B is defined as 100*(mean(AUCAB)−mean(AUCA)−mean(AUCB)+mean(AUCctl))/mean(AUCctl): where AUCAB, AUCA, AUCB, and AUCctl are the AUC values for animals in the combination group, the A group, the B group, and the control group, respectively. The standard error of the synergy score is computed based on the variation in the AUC values among the animals. […] If the P-value is above 0.05, then the combination is considered to be additive. […]

For experiment [1], the system named is PHTX249Pa xenograft model. The experiment in a line: Combination of gemcitabine and MLN4924 in PHTX249Pa xenograft model. The method, then: as §1, with “PHTX249 Pa pancreatic” for “PHTX02B breast”, “pancreatic adenocarcinoma.” for “invasive ductal carcinoma classified as triple negative breast cancer (ER-/PR-/Her2-) by IHC.”
Another experiment has as its system LXFE409 xenograft model. The experiment in a line: Combination of docetaxel or carboplatin and MLN4924 in LXFE409 xenograft model. As to conditions: for average tumor volume day 21: LXFE409 xenograft. The method, then:
LXFE409 squamous non small cell lung cancer tumor fragments are implanted into the subcutaneous space in the flank of female NMRI nu/nu mice (5-7 weeks, Janvier Labs, Saint Berthevin, France).
as §4, §5, §2, §3

In experiment [2] the test system is NCI-H1650 xenograft model. The experiment in a line: Combination of docetaxel and MLN4924 in NCI-H1650 xenograft model.
Text: NCI-H1650 (2×10^6) tumor cells in RPMI-1640 media are mixed with an equal volume of Matrigel (BD Biosciences) and aseptically injected into the subcutaneous space in the right dorsal flank of Balb/c Nude mice (age 4-6 weeks, Shanghai SINO-British SIPPR/BK Lab Animal Ltd.) using a 25-gauge needle.
as §4, §2, §3

[3] abbreviates: 120 mg/kg MLN4924 Q2Dx3/week SC.

On to `NS(=O)(=O)OC[C@@H]1C[C@@H](n2ccc3c(N[C@H]4CCc5ccccc54)ncnc32)C[C@@H]1O` [MLN4924, ((1S,2S,4R)-4-(4-((1S)-2,3-dihydro-1H-inden-1-ylamino)-7H-pyrrolo[2,3-d]-pyrimidin-7-yl)-2-hydroxycyclopentyl)methyl sulfamate], for which the “average tumor volume day 22” value came to 647.4 mm^3 with PHTX02B xenograft model (30 mg/kg MLN4924 BID SC), 438.5 mm^3 in the experiment on NCI-H69 xenograft model (45 mg/kg MLN4924 BID Q3Dx2/week SC) and 475.4 mm^3 in the experiment on NCI-H69 xenograft model (60 mg/kg MLN4924 BID Q2Dx3/week SC). Further, in the experiment on PHTX02B xenograft model (FIG. 2, MLN4924 SC 30 mg/kg BID, gemcitabine 10 mg/kg IP q3dx4, single agents or their combination), the “tumor growth during the treatment period (in words)” value is on record as “inhibited tumor growth compared to the control vehicle group”. The “average tumor volume day 21” value in the experiment with LU1143 xenograft model worked out at 801.2 mm^3; in the experiment with LXFE409 xenograft model (90 mg/kg MLN4924 Q2Dx3/week SC), 707.5 mm^3; in the experiment on LXFE409 xenograft model (setting [3]), 167.1 mm^3; in experiment [2] (90 mg/kg MLN4924 Q2Dx3/week SC) it was 776.8 mm^3; in experiment [2] (setting [3]), 774.2 mm^3. In addition, the “average tumor volume day 18” value in experiment [1] (PHTX249Pa xenograft, 90 mg/kg MLN4924 BID BIW SC) turned out to be 1748.9 mm^3. Further, the “tumor growth compared to the control vehicle group (in words)” value in experiment [1] (PHTX249 Pa xenograft, gemcitabine 20 mg/kg IV BIW, MLN4924 90 mg/kg SC BID BIW, single agents or their combination) was “did not show growth inhibition compared to the control vehicle group”. Moreover, the “tumor course after the treatment period, to end of study on day 95 (in words)” value in the experiment on LXFE409 xenograft model (LXFE409 sqNSCLC model, FIG. 4, MLN4924 120 mg/kg SC Q2Dx3/week for 3 weeks, docetaxel 10 mg/kg IV QW for 3 weeks, single agents or combination) was “regrew after the treatment period ended”.

These data come from US10786505B2, “Administration of NEDD8-activating enzyme inhibitor and chemotherapeutic agents” (Millennium Pharmaceuticals, Inc., priority 2013, dated 2020).
